Assay results reported in ChEMBL document CHEMBL3797103, “Synthesis of a dansyl-labeled inhibitor of 17β-hydroxysteroid dehydrogenase type 3 for optical imaging” (Bioorg Med Chem Lett, 2016).

Columns and labels:
[1] = molecular target: T1, 17-beta-hydroxysteroid dehydrogenase type 3 (Homo sapiens, UniProt P37058); experiment: Inhibition of 17betaHSD3 (unknown origin) transfected in human LNCAP cells assessed as conversion of [14C]-4-androstene-3,17-dione into [14C]-testosterone after 3 hrs; assay type: cell-based
T1 sequence (P37058 whole entry): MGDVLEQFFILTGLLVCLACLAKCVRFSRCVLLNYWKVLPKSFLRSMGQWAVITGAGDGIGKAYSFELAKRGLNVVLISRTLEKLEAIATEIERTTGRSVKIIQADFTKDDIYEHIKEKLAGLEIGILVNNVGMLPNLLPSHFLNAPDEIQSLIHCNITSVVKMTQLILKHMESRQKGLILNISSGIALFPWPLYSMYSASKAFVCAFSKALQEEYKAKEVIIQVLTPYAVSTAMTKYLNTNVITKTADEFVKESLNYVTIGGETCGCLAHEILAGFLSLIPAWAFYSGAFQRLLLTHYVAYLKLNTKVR

LNCaP [2] = experiment: Drug uptake in 17betaHSD3 expressing human LNCAP cells assessed as shape of the cells at 10 uM excited at 350 nm after 4 hrs by fluorescence confocal spinning disk microscopic analysis; assay type: ADME, cell-based
LNCaP [3] = experiment: Drug uptake in wild type human LNCAP cells assessed as shape of the cells at 10 uM excited at 350 nm after 4 hrs by fluorescence confocal spinning disk microscopic analysis; assay type: ADME, cell-based
LNCaP [4] = experiment: Drug uptake in 17betaHSD3 expressing human LNCAP cells assessed as mean fluorescence intensity at 30 uM after 4 hrs by flow cytometric analysis; assay type: ADME, cell-based
LNCaP [5] = experiment: Drug localization in 17betaHSD3 expressing human LNCAP cell assessed as localized space around endoplasmic reticulum at 1 uM preincubated for 3 hrs followed by ER tracker addition for the last remaining hour by fluorescent microscopic analysis; assay type: ADME, cell-based
[6] = Drug localization in 17betaHSD3 expressing human LNCAP cell assessed as localised around lysosomes at 1 uM after 4 hrs by fluorescent microscopic analysis in the presence of lysosome tracker; assay type: ADME, cell-based
LNCaP [7] = experiment: Drug uptake in 17betaHSD3 expressing human LNCAP cells at 3 to 50 uM after 4 hrs by flow cytometric analysis; assay type: ADME, cell-based
LNCaP [8] = experiment: Drug uptake in wild-type human LNCAP cells at 3 to 50 uM after 4 hrs by flow cytometric analysis; assay type: ADME, cell-based

Row | Structure (SMILES) | IC50 [1] [nM] | Drug uptake (LNCaP [2]) | Drug uptake (LNCaP [3]) | Flu intensity (LNCaP [4]) | Drug uptake (LNCaP [5]) | Drug uptake [6] | Drug uptake (LNCaP [7]) | Drug uptake (LNCaP [8])
1 | C[C@@H]1CN(S(=O)(=O)c2ccccc2C(F)(F)F)[C@@H](C)CN1C[C@@]1(O)CC[C@@]2(C)[C@@H](CC[C@@H]3[C@@H]2CC[C@]2(C)C(=O)CC[C@@H]32)C1 | 85 |  |  |  |  |  |  | 
2 | C[C@@H]1CN(S(=O)(=O)c2cccc3c(N(C)C)cccc23)[C@@H](C)CN1C[C@@]1(O)CC[C@@]2(C)[C@@H](CC[C@@H]3[C@@H]2CC[C@]2(C)C(=O)CC[C@@H]32)C1 | 262 | Active | Not Active | 4 | Active | Active | Active | Active
